Experimental data taken from patent US20100120810A1, “COMPOUNDS AND METHODS FOR MODULATING RHO GTPASES” (priority 2007, published 2010).
Entries after “also recorded” stand apart in the source; their conditions may differ. Structures can show the parent of a compound that is named as a salt. Where two headings read alike, the source gives them in different places.

Experiments:
Rac1b = molecular target: T1, Rac1b (Homo sapiens, UniProt P63000); assay: Nucleotide binding assay: BODIPY-GTP binding to Rac1b; type: biochemical; conditions: for inhibition at 50 µM: read-out: Rac1b % inhibition of BODIPY-GTP binding; for IC50: dose-response study
T1 construct: GST (N); made in house; host or cells: E. coli BL21 Codon+RIL
Procedure: (§1) Fluorescence of GTP analog BODIPY-GTP increases when it binds to small G proteins. This property was used to assess ability of compounds to inhibit nucleotide binding to Rac1, Rac1b and Cdc42. 2 μM GST-Rac1 and 6 μg His6-Tiam1-DH/PH were diluted in a buffer containing 20 mM Tris, 50 mM NaCl, and 1 mM MgCl2. This mixture was loaded in a 96-well plate. Fluorescence recording were started (λEx: 485 nm; λEm: 538 nm) using a spectrofluorimeter (Fluoroskan; Thermolab Systems). Assay was initiated by the addition of 2 μM BODIPY-GTP with or without various doses of test compound. Fluorescence values were recorded, and data were processed as follows: background fluorescence (unbound BODIPY-GTP) was retrieved from fluorescence values.
(§2) This assay allows determining whether compounds can inhibit the binding of a fluorescent nucleotide to recombinant small G proteins of interest. The effect of various alkaloid compounds on binding of BODIPY-GTP to Rac1 activated by DH/PH domain of Guanine nucleotide Exchange Factor Tiam1 (Rac1/Tiam1), Rac1b and Cdc42 is described below.

[1] = molecular target: T2, HEK293 cells overexpressing human Rac1b (Homo sapiens, UniProt P63000); assay: Rac1b activation assay (G-LISA); type: cell-based
T2 construct: expressed in transfected cells; host or cells: HEK293
Procedure: Rac1b activation assay: HEK293 cells overexpressing human Rac1b were plated in 100 mm diameter dishes and grown for 5 days in MEM medium supplemented with 10% FBS, L-Glutamine and antibiotics. Cells were then treated with 50 μM of compounds or the solvent for 5 minutes, and the GTP loading of Rac1b was measured using a Rac Activation Assay Kit (Cytoskeleton) according to manufacturer's recommendations. Briefly, this assay uses a 96-well plate coated with RBD domain of Rho-family effector proteins. […] The signal is then developed with OPD reagent.

Cdc42 = molecular target: T3, Cdc42 (Homo sapiens, UniProt P60953); assay: Nucleotide binding assay: BODIPY-GTP binding to Cdc42; type: biochemical; conditions: for inhibition at 50 µM: read-out: Cdc42 % inhibition of BODIPY-GTP binding; for IC50: dose-response study
T3 construct: GST (N); made in house; host or cells: E. coli BL21 Codon+RIL
T3 sequence (P60953 whole entry, species assumed): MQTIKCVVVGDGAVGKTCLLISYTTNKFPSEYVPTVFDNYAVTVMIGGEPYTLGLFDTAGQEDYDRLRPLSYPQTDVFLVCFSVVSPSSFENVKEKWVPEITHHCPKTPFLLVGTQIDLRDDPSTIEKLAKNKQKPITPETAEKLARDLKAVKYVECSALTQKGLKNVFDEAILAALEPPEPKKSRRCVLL
Procedure: as §1, §2

[2] = molecular target: T4, Rac1 activated by DH/PH domain of Guanine nucleotide Exchange Factor Tiam1 (Rac1/Tiam1) (Homo sapiens, UniProt P63000); assay: Nucleotide binding assay: BODIPY-GTP binding to Rac1 activated by Tiam1 DH/PH; type: biochemical; conditions: for inhibition at 50 µM: read-out: Rac1 % inhibition of BODIPY-GTP binding
T4 construct: made in house; host or cells: E. coli BL21 Codon+RIL
Procedure: as §1, §2

HCT116 cell line = assay: Soft agar assay (anchorage-independent colony formation); type: cell-based; conditions: HCT116, 7 days
Description: Colony formation in soft agar is the most widely used assay to evaluate anchorage-independent growth potential and represents one of the best in vitro assays that correlates strongly with in vivo tumorigenic cell growth potential. Normal cells require adherence and spreading onto a solid substratum in order to remain viable and proliferate. In contrast, cancer cell line HCT116 (ATCC clone number CCL-247) lost this requirement and therefore can form proliferating colonies of cells when suspended in a semisolid agar medium. The assay was performed in 24-well plates, using duplicates wells for each compound concentration. Briefly, a 0.5% Bacto™ Agar (BD Biosciences) bottom layer (prepared in HCT116 complete growth medium supplemented or not with the tested compound) was poured first and allowed to harden (0.3 ml per well). HCT116 were trypsinized to generate a uniform single cell suspension. Five×10^3 cells per well were resuspended in 0.3% agar supplemented with complete growth medium, with or without several compound concentrations to form the top layer (0.3 ml per well). HCT116 were allowed to grow for 7 days in these conditions and then analysed for colonies formation. Analysis was performed from pictures taken under a microscope that are representative from 2 different fields of the well. For each field, 2 different focal plans were taken and were merged using ImageJ software. The number of colonies were scored and colonies' size were measured. IC50 were determined for the number and size of colonies using GraphPad Prism (GraphPad) software. Data are mean values of 2 to 3 independent experiments.

protein kinase C (PKC) = conditions: cited from earlier work
[3] = HEK293, 50 μM, 5 minutes, GTP loading of Rac1b, read-out: G-LISA % inhibition @ 50 μM
[4] = final concentration of 50 μM, Rac1/Tiam1
[5] = Homo sapiens, HCT-116, 168 h, read-out: Soft agar assay IC50, Clone Number
[6] = Homo sapiens, HCT-116, 168 h, read-out: Soft agar assay IC50, Clone Size

SMILES	inhibition at 50 µM (Rac1b; final concentration of 50 μM)	inhibition at 50 µM (Cdc42; final concentration of 50 μM)	inhibition at 50 µM [2, 4]	IC50 (HCT116 cell line; [5])	IC50 (HCT116 cell line; [6])	other results
COc1cc2cc(-c3cccc(N)c3)nc(C)c2cc1OC [Compound 28, 3-(6,7-Dimethoxy-1-methylisoquinolin-3-yl)aniline dihydrochloride]	20 ± 2%	3 ± 5%	13 ± 2%	–	–	inhibition at 50 µM [1, 3]: 27 ± 4%
COc1ccc2c(c[n+](C)c3c4cc(O)c(O)cc4ccc23)c1OC [Compound 51, 2,3-Dihydroxy-7,8-dimethoxy-5-methylbenzo[c]phenanthridinium chloride]	–	38 ± 2%	–	> 50 µM	11.4 ± 1.9 µM	IC50 (Cdc42): 78 ± 3 µM
Oc1cc2c(cc1O)C1Cc3ccc(O)c(O)c3CN1CC2 (racemic) [Compound 16, (±)-5,8,13,13a-Tetrahydro-6H-isoquino[3,2-a]isoquinolinylium-2,3,9,10-tetraol hydrochloride]	–	–	–	6.4 ± 1.3 µM	6.2 ± 0.4 µM	inhibition at 50 µM (Cdc42): 4 ± 6%
COc1cc2cc(-c3cccc(NS(C)(=O)=O)c3)nc(C)c2cc1OC [Compound 30, N-(3-(6,7-Dimethoxy-1-methylisoquinolin-3-yl)phenyl)methanesulfonamide hydrochloride]	16 ± 2%	4 ± 4%	9 ± 3%	–	–	inhibition at 50 µM [1, 3]: 12 ± 2%
COc1cc2cc(-c3ccc4ccccc4c3)nc(C)c2cc1OC.Cl [Compound 41, 6,7-Dimethoxy-1-methyl-3-(naphthalen-2-yl)isoquinolinylium chloride]	–	–	–	70.7 ± 5.9 µM	44.4 ± 4.5 µM	Cdc42 % inhibition of BODIPY-GTP binding (Cdc42; final concentration of 50 μM, 50 µM): 52 ± 4%
COc1ccc2c(c[n+](C)c3c4cc5c(cc4ccc23)OCO5)c1OC.[Cl-] [Compound 14, 1,2-dimethoxy-N-methyl[1,3]benzodioxolo[5,6-c]phenanthridinium chloride, reference compound]	100%	35 ± 10%	25 ± 6%	2.4 ± 0.2 µM	2 ± 0.3 µM	IC50 (Rac1b): 6.7 ± 0.9 µM; selectivity for Rac1b (Rac1b; versus Rac1 or Cdc42): highly selective for Rac1b; also recorded: some significant selectivity for Rac1b; activity against PKC (protein kinase C (PKC)): 1 μm; inhibition at 50 µM [1, 3]: 40 ± 10%; maximum inhibition on Rac1/Tiam1 ([2]; dose-response study (1-2-5-10-25-50-75-100 μM)): around 25%
COc1cc2cc(-c3ccc(O)c(O)c3)nc(C)c2cc1OC [Compound 26, 4-(6,7-Dimethoxy-1-methylisoquinolin-3-yl)benzene-1,2-diol hydrochloride]	–	15 ± 1%	–	14.8 ± 3.3 µM	8.5 ± 0.9 µM	–
C[n+]1cc2c(O)c(O)ccc2c2ccc3cc(O)c(O)cc3c21 [Compound 52, 2,3,7,8-Tetrahydroxy-5-methylbenzo[c]phenanthridinium chloride]	–	–	–	9.8 ± 1.3 µM	9.5 ± 0.4 µM	IC50 (Cdc42): 22 ± 2 µM; inhibition at 50 µM (Cdc42): 73 ± 4%
O=c1cc(CN2CCOCC2)occ1OCCCCCSc1ccnc2cc(C(F)(F)F)ccc12 [EHT 1864, reference compound]	–	–	–	–	–	IC50 (HCT116 cell line; read-out: Soft agar assay IC50, Clone Number): 57.5 ± 4.5 µM; IC50 (HCT116 cell line; read-out: Soft agar assay IC50, Clone Size): 19.5 ± 2.5 µM
COc1cc2cc(-c3cccc(C(C)=O)c3)nc(C)c2cc1OC [Compound 24, 1-(3-(6,7-Dimethoxy-1-methylisoquinolin-3-yl)phenyl)ethanone hydrochloride]	27 ± 2%	7 ± 2%	18 ± 3%	–	–	inhibition at 50 µM [1, 3]: 19 ± 5%
COc1ccc2cc3[n+](cc2c1OC)CCc1cc(O)c(O)cc1-3 [Compound 4, 9,10-dimethoxy-5,6-dihydro-isoquino[3,2-a]isoquinolinylium-2,3-diol chloride]	–	31 ± 9%	–	–	–	IC50 (Rac1b): 23.8 ± 2.9 µM; inhibition at 50 µM (Rac1b): 54 ± 2%; inhibition at 50 µM ([1]; HEK293, read-out: G-LISA % inhibition @ 50 μM): 30 ± 5%; IC50 ([2]; dose-response study): 58.6 ± 16.9 µM; inhibition at 50 µM [2]: 39 ± 2%
COc1cc(-c2cc3cc(OC)c(OC)cc3c(C)n2)ccc1O [Compound 47, 4-(6,7-Dimethoxy-1-methylisoquinolin-3-yl)-2-methoxyphenol hydrochloride]	18 ± 1%	17 ± 1%	15 ± 3%	–	–	inhibition at 50 µM [1, 3]: 13 ± 8%
Cc1c2cc(O)c(O)cc2cc2c3cc(O)c(O)cc3cc[n+]12 [Compound 15, 8-Methyl-isoquino[3,2-a]isoquinolinylium-2,3,10,11-tetraol chloride]	72 ± 4%	70 ± 3%	63 ± 4%	–	–	IC50 (Rac1b): 13.2 ± 4.3 µM
COc1cc2cc(-c3ccccc3NC(=O)N(C)C)nc(C)c2cc1OC [Compound 46, 3-(2-(6,7-Dimethoxy-1-methylisoquinolin-3-yl)phenyl)-1,1-dimethylurea hydrochloride]	9 ± 3%	2%	8 ± 3%	–	–	–
COc1cc2cc(-c3ccc(O)c(O)c3)[n+](C)c(C)c2cc1OC [Compound 27, 3-(3,4-Dihydroxyphenyl)-6,7-dimethoxy-1,2-dimethylisoquinolinium chloride]	17 ± 1%	5 ± 2%	6 ± 2%	–	–	–
COc1cc2cc(-c3ccccc3)nc(C)c2cc1OC [Compound 44, 6,7-Dimethoxy-1-methyl-3-phenylisoquinolinylium chloride]	8 ± 3%	10 ± 1%	10 ± 3%	–	–	–
COc1cc2cc(-c3cccc([N+](=O)[O-])c3)nc(C)c2cc1OC [Compound 23, 6,7-Dimethoxy-1-methyl-3-(3-nitrophenyl)isoquinolinium chloride]	10 ± 4%	14 ± 3%	3 ± 4%	–	–	–
Cc1c2cc(O)c(O)cc2cc(-c2ccc(O)c(O)c2)[n+]1C [Compound 45, 3-(3,4-Dihydroxyphenyl)-6,7-dihydroxy-1,2-dimethylisoquinolinium chloride]	36 ± 4%	12 ± 1%	22 ± 1%	–	–	–
COc1cc2cc(-c3ccccc3N)nc(C)c2cc1OC [Compound 37, 2-(6,7-Dimethoxy-1-methylisoquinolin-3-yl)aniline dihydrochloride]	14 ± 2%	1 ± 13%	10 ± 1%	–	–	–
COc1cc2c(cc1OC)-c1cc3ccc(OC)c(OC)c3c[n+]1CC2 [Compound 2, palmatine chloride, hydrate, reference compound]	–	11 ± 2%	–	–	–	inhibition at 50 µM (Rac1b): 19 ± 3%; inhibition at 50 µM [2]: 15 ± 2%
